Article PMC11267363, “Supramolecular Nanofibers Ameliorate Bleomycin‐Induced Pulmonary Fibrosis by Restoring Autophagy” (Advanced Science, 2024)
Ends that are not written are not given here.

Assays:
[1] = Self-assembly in saline buffer (Tyndall path, TEM nanostructure); assay type: physicochemical
Text: To verify our hypothesis, we utilized the self‐assembling factor (Acetyl‐Gly‐Phe‐Phe‐Tyr, Ac‐GFFY) to regulate the secondary conformation of A2 peptide (GGWLTRLLQTK) from p62 UBA domain binding with TRB3.^[ [16] ^] The self‐assembling factor Ac‐GFFY was covalently attached to the N‐terminal of peptide A2 to introduce Ac‐GFFY‐A2 (Figure 2a) as a modulator of the TRB3/p62 PPIs, non‐self‐assembling peptide A2 as the control group. Both of those peptide compounds were synthesized by standard solid phase peptide synthesis (SPPS), purified by reversed‐phase high‐performance liquid chromatography (HPLC), and identified through the high‐resolution mass spectrometry (HR‐MS, Figures S4 and S5, Supporting Information). The 0.5 wt% of peptide Ac‐GFFY‐A2 could observe an obvious “Tyndall path” in saline buffer (0.9% NaCl) after the heating‐cooling process (Figure S13, Supporting Information), compared with peptide A2 solution (0.5 wt%, saline buffer). The critical aggregation concentration (CAC) of those compounds was detected by dynamic light scattering. […] Furthermore, a transmission electron microscope (TEM) was used to observe the nanostructures formed by different compounds. Ac‐GFFY‐A2 could self‐assemble and form entangled nanofibers with a diameter of 8–12 nm (Figure 2b).
Transmission electron microscopy (TEM)
The samples (0.5 wt%, 10 μL) were loaded onto copper mesh coated with carbon.
After excess liquid was removed by a filter paper, 2% uranium acetate was used for dyeing the sample for 1 minute and the sample was dried overnight in a dryer. The samples were then imaged at 200 kV using a Tecnai G2 F20 system.
Circular dichroism (CD) spectrum
A BioLogic (MOS-450) system was used to record the circular dichroism spectrum.
Test wavelengths was in the range from 180 nm to 280 nm. […]
The CAC values were determined by dynamic light scattering (DLS). Solutions containing different concentration of compound in saline buffer were tested and the light scattering intensity was recorded for each concentration analyzed. […]

[2] = system: bleomycin-induced pulmonary fibrosis; assay: Bleomycin model of pulmonary fibrosis, therapeutic treatment; assay type: in vivo, C57BL/6 mice; conditions: for survival rate: bleomycin 2 U kg−1 intratracheal, i.v. treatment from 7 days later, Ac-GFFY-A2 10 mg/kg, 21-day period, n = 16
Text: We further evaluated the anti‐fibrotic effect of Ac‐GFFY‐A2 peptide nanofibers in vivo. […] The observed reductions in fibrosis, collagen accumulation, and protein levels of Col 1 and α‐SMA strongly support the efficacy of Ac‐GFFY‐A2 in combating fibrotic processes, confirming that the peptide nanofibers as a TRB3/p62 PPIs modulator with a potent anti‐fibrotic activity.
C57BL/6 mice were intratracheally administered with bleomycin at a dose of 2 U kg^−1 body weight as previously described.^[ [11a] ^]
Hydroxyproline content of the right lung of each mouse was measured using a conventional hydroxyproline method as previously described.^[ [30] ^]
The left lungs cleared of blood were inflated with 10% neutral buffered formalin and fixed overnight. Then the tissues were embedded in paraffin and sectioned. The 5‐µm sections were stained with H&E and Masson trichrome according to the manufacturer`s instructions (Sigma–Aldrich). Immunohistochemistry was performed as previously described.^[ [30] ^] The antibodies specific for α‐SMA and Collagen I were used for staining.

Substance | Tyndall path ([1]; 0.5 wt% in saline buffer (0.9% NaCl) after heating-cooling process) | diameter of entangled nanofibers (TEM) ([1]; 0.5 wt% in saline buffer after heating-cooling process, TEM) | survival rate [2] [%] | quantification of fibrotic left lung sections (lung fibrotic score) ([2]; bleomycin mice, i.v. treatment, H&E, compared to saline or A2) | body weight ([2]; bleomycin mice, i.v. treatment, average body weight curve) | hydroxyproline content ([2]; bleomycin mice, i.v. treatment, bleomycin challenge alone ≈480) | nanostructure in TEM image ([1]; 0.5 wt%, saline buffer, TEM)
Ac-GFFYGGWLTRLLQTK-OH [Ac-GFFY-A2] | obvious | 8–12 nm | 68.75 | significant decrease in fibrosis | partial recovery from the body weight loss | ≈ 280 µg per right lung tissue | 
GGWLTRLLQTK-OH [A2, reference compound] |  |  | 62.50 |  |  |  | amorphous structures
